This note sets out measurements from patent US4081434A, “Novel analogs of β-endorphin” (Hoffmann-La Roche Inc., priority 1977, dated 1978).

This assay concerns guinea pig ileum. As to the kind of experiment: guinea pig ileum bioassay of Kosterlitz et al. (opiate agonist activity). Type of assay: cell-based. The settings on record: for relative potency: guinea pig ileum bioassay, βh and βc -endorphin = 1.00. The source says:
Thus, for example, in the guinea pig ileum bioassay of Kosterlitz et al. Brit. J. Pharmacol. 39, 398 (1970) the IC50 (50% inhibiting concentration) of representative β-endorphins and the relative potency of β-endorphin fragments are as follows.

Ends that are not written are not given here.

For met-enkephalin, the relative potency came to 0.26.

In turn, `CC[C@H](C)[C@H](NC(=O)[C@H](C)NC(=O)[C@H](CC(N)=O)NC(=O)[C@H](CCCCN)NC(=O)[C@H](Cc1ccccc1)NC(=O)[C@H](CC(C)C)NC(=O)[C@@H](NC(=O)[C@@H](NC(=O)[C@H](CC(C)C)NC(=O)[C@@H]1CCCN1C(=O)[C@@H](NC(=O)[C@H](CCC(N)=O)NC(=O)[C@H](CO)NC(=O)[C@H](CCCCN)NC(=O)[C@H](CCC(=O)O)NC(=O)[C@H](CO)NC(=O)[C@@H](NC(=O)[C@H](CCSC)NC(=O)[C@H](Cc1ccccc1)NC(=O)CNC(=O)CNC(=O)[C@@H](N)Cc1ccc(O)cc1)[C@@H](C)O)[C@@H](C)O)C(C)C)[C@@H](C)O)C(=O)N[C@H](C(=O)N[C@@H](CCCCN)C(=O)N[C@@H](CC(N)=O)C(=O)N[C@@H](C)C(=O)N[C@@H](Cc1ccc(O)cc1)C(=O)N[C@@H](CCCCN)C(=O)N[C@@H](CCCCN)C(=O)NCC(=O)N[C@@H](CCC(=O)O)C(=O)O)[C@@H](C)CC` [βh -endorphin] gave a relative potency of 1.00.

In turn, “YGGFMTSEKSQTPLVTLFKNAIIKNAHKKGQ [βc -endorphin]” displayed a relative potency of 1.00.

In turn, “YGGFMTLFKNAIIKNAYKKGE [βh-endorphin-(1-5)-(16-31), H--tyr--Gly--Gly--Phe--Met--Thr--Leu--Phe--Lys--Asn--Ala--Ile--Ile--Lys--Asn--Ala--Tyr--Lys--Lys--Gly--Glu--OH]” returned a relative potency of 1.35. Under “guinea pig ileum assay for opiate agonist activity”, the “more potent than parent compound βh -endorphin” value is listed as “about 35%”.

In the case of “βc -endorphin-(6-31): fragment 6-31 of camel β-endorphin (TSEKSQTPLVTLFKNAIIKNAHKKGQ; Beta-endorphin; UniProt P01203 6-31, looked up, fragment)”, the relative potency amounted to 0.04.

“βc -endorphin-(20-31): fragment 20-31 of camel β-endorphin (NAIIKNAHKKGQ; Beta-endorphin; UniProt P01203 20-31, looked up, fragment)” yielded a relative potency of 0.001.
